{
  "source": "paper PMC5925831",
  "about": "“Enhancement of the catalytic activity of Isopentenyl diphosphate isomerase (IDI) from Saccharomyces cerevisiae through random and site-directed mutagenesis” (Microbial Cell Factories, 2018)",
  "key": {"[1]": {"target": "T1, IDI (isopentenyl diphosphate isomerase from Saccharomyces cerevisiae) (Saccharomyces cerevisiae, UniProt P15496)", "T1 construct": "gene IDI1", "T1 sequence (P15496 2-288)": "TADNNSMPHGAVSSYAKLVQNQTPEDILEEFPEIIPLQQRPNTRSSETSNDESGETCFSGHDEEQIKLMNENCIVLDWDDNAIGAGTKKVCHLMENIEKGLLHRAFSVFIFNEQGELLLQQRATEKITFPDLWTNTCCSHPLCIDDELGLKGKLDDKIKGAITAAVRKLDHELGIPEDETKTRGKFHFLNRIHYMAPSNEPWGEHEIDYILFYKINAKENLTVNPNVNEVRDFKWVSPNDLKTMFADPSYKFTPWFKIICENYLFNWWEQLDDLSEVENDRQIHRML", "conditions": "50 mM MOPS, 20 mM MgCl2, 5% glycerol, pH 7.5, 30 °C (activity assay); substrate range printed as 1–1000 mmol/L", "excerpt": "(§1) GC of isoprene released from DMAPP by acid and heat; double-reciprocal plot on IDI (isopentenyl diphosphate isomerase from Saccharomyces cerevisiae)"}, "[2]": {"target": "T2, IDI (isopentenyl diphosphate isomerase from Saccharomyces cerevisiae) (Saccharomyces cerevisiae, UniProt P15496, Y195F/W256C, form not given)", "T2 construct": "gene IDI1", "T2 sequence (P15496 2-288 Y195F/W256C, form open)": "as the sequence (P15496 2-288) above, with Y194F, W255C counted along it", "conditions": "50 mM MOPS, 20 mM MgCl2, 5% glycerol, pH 7.5, 30 °C (activity assay); substrate range printed as 1–1000 mmol/L", "excerpt": "as §1"}},
  "data": [
    {"molecule": "C=C(C)CCO[P@@](=O)(O)OP(=O)(O)O", "note": "[isopentenylpyrophosphate]", "values": [
      {"measurement": "Km", "setting": "[1]", "result": "41.5 ± 0.39", "unit": "µM"},
      {"measurement": "Km", "setting": "[2]", "result": "37.6 ± 0.17", "unit": "µM"}
    ]}
  ]
}
